Among the test systems are HCT-15 colon; MOLT-4 leukemia; NCI-H226 lung; NCI-H23 lung; NCI-H460 lung; OVCAR-5 ovarian; RPMI-8226 leukemia; SF-268 CNS; SK-MEL-28 melanoma; UACC-62 melanoma.
What all share (assay): NCI tumour cell line growth inhibition, 48 h

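Cells were grown in 96-well plates and exposed to each compound for 48 hours at five concentrations; endpoints were interpolated linearly between bracketing concentrations, or set to the highest concentration if not reached. Here, GI50 denotes the concentration required for 50% inhibition of growth. TGI marks complete inhibition of growth.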

As to `CSc1nc(Cl)c(Br)c(Sc2nc(N)nc3nc[nH]c23)n1`, the TGI amounted to 21.2 µM in the experiment on HCT-15 colon; 18.9 µM in the experiment on MOLT-4 leukemia; 22.3 µM with NCI-H226 lung; 24 µM in the experiment with NCI-H23 lung; 20.1 µM in the experiment with NCI-H460 lung; 24.1 µM in the experiment on OVCAR-5 ovarian. In addition, the TGI in the experiment on RPMI-8226 leukemia stood at 16.4 µM; in the experiment with SF-268 CNS, 14.9 µM; in the experiment on SK-MEL-28 melanoma, 24 µM; in the experiment on UACC-62 melanoma it was 14.2 µM.
With `N=C(c1ccc2ccccc2c1)c1ccccc1Cc1ccccc1`, the TGI was over 100 µM with HCT-15 colon; 67.8 µM in the experiment on MOLT-4 leukemia; 98.9 µM with NCI-H226 lung; over 100 µM in the experiment with NCI-H23 lung; over 100 µM in the experiment on NCI-H460 lung; over 100 µM in the experiment with OVCAR-5 ovarian. The TGI with RPMI-8226 leukemia, in the experiment with SK-MEL-28 melanoma and in the experiment with UACC-62 melanoma was over 100 µM in each case.
For `O=C1c2ccccc2C(=O)c2c(Nc3ccc4c5c(cccc35)C(=O)c3ccccc3-4)cccc21`, the TGI in the experiment on HCT-15 colon, with MOLT-4 leukemia, in the experiment with NCI-H226 lung, in the experiment on NCI-H23 lung, in the experiment with NCI-H460 lung and with OVCAR-5 ovarian was over 100 µM throughout. The TGI in the experiment with SF-268 CNS and in the experiment with UACC-62 melanoma was over 100 µM each time.
Take `CCOC(=O)C12CCC(=O)C=C1[C@@H](C)C(=O)CC2` (some centres not stated): the TGI in the experiment with HCT-15 colon, with NCI-H226 lung, with NCI-H23 lung, with NCI-H460 lung, with OVCAR-5 ovarian and with RPMI-8226 leukemia was over 100 µM each time. The TGI in the experiment with SF-268 CNS, in the experiment on SK-MEL-28 melanoma and with UACC-62 melanoma was over 100 µM in each case.
Turning to `O=C(CNc1cccc([N+](=O)[O-])c1)Nn1c(-c2ccccc2)nc2ccccc2c1=O`, the TGI in the experiment with HCT-15 colon stood at 2.23 µM; with MOLT-4 leukemia, 0.818 µM; in the experiment with NCI-H226 lung, 0.512 µM; in the experiment with NCI-H23 lung, 9.32 µM; in the experiment with OVCAR-5 ovarian, 3.46 µM; in the experiment on RPMI-8226 leukemia it was 3.36 µM. Also, the TGI amounted to 4.22 µM with SF-268 CNS, 3.04 µM with SK-MEL-28 melanoma and 0.608 µM in the experiment with UACC-62 melanoma.
Consider `CC(C)(C)N1C(C(=O)c2ccccc2)C1c1ccccc1` (configuration not stated), for which the TGI in the experiment on HCT-15 colon, in the experiment on MOLT-4 leukemia, with NCI-H226 lung, in the experiment with NCI-H23 lung, with NCI-H460 lung and in the experiment with RPMI-8226 leukemia was over 100 µM in each case. In addition, the TGI in the experiment with SK-MEL-28 melanoma and in the experiment with UACC-62 melanoma was over 100 µM in each case.
Regarding `N#CN=C(N)NC(=O)/C=C/C=C/c1ccc(Cl)cc1`, the TGI in the experiment on HCT-15 colon, in the experiment on MOLT-4 leukemia, in the experiment with NCI-H226 lung, in the experiment on NCI-H23 lung, in the experiment on NCI-H460 lung and with OVCAR-5 ovarian was over 100 µM throughout. Besides, the TGI with RPMI-8226 leukemia, in the experiment with SF-268 CNS, in the experiment on SK-MEL-28 melanoma and in the experiment on UACC-62 melanoma was over 100 µM in each case.
`CC(C)(C)OC(=O)c1cnc(Cl)cn1`: the TGI with HCT-15 colon is 27.5 µM; in the experiment with MOLT-4 leukemia, over 100 µM; with NCI-H226 lung, over 100 µM; in the experiment on NCI-H23 lung, 55.4 µM; with NCI-H460 lung, over 100 µM; in the experiment on OVCAR-5 ovarian, over 100 µM. Also, the TGI in the experiment with RPMI-8226 leukemia, with SF-268 CNS, in the experiment with SK-MEL-28 melanoma and in the experiment on UACC-62 melanoma was over 100 µM throughout.
On to `CC(C)c1cc(CN(C)C)c(O)c(C(C)(C)C)c1`, for which the TGI is 63.3 µM in the experiment on HCT-15 colon; 42.5 µM with MOLT-4 leukemia; 42.5 µM in the experiment on NCI-H226 lung; over 100 µM with NCI-H23 lung; 32.3 µM with NCI-H460 lung; over 100 µM in the experiment with OVCAR-5 ovarian. Besides, the TGI in the experiment on RPMI-8226 leukemia is 32.3 µM; in the experiment with SF-268 CNS it was 58.4 µM; with SK-MEL-28 melanoma, 69.3 µM; in the experiment with UACC-62 melanoma, over 100 µM.
On to `O=c1ccc2nc(-c3ccccc3)nn(-c3ccccn3)c-2c1`, for which the GI50 was 1.79 µM with MOLT-4 leukemia; 20.4 µM in the experiment on NCI-H226 lung; 13.6 µM with NCI-H23 lung; 70.2 µM in the experiment on NCI-H460 lung; 21.9 µM in the experiment with OVCAR-5 ovarian; 5.32 µM in the experiment with RPMI-8226 leukemia. For the same compound, the values for the GI50 in the experiment with SF-268 CNS, with SK-MEL-28 melanoma and in the experiment on UACC-62 melanoma were 19 µM, 12.3 µM and 15 µM, respectively. Further, the TGI was 6.21 µM in the experiment on MOLT-4 leukemia; 57.5 µM in the experiment with NCI-H226 lung; 45.1 µM in the experiment with NCI-H23 lung; over 100 µM in the experiment with NCI-H460 lung; 54.9 µM in the experiment with OVCAR-5 ovarian; 63.1 µM with RPMI-8226 leukemia. For the same compound, the TGI with SF-268 CNS is 41 µM; in the experiment on SK-MEL-28 melanoma, 29.8 µM; in the experiment with UACC-62 melanoma, 32.8 µM.
With `Nc1nc(N)c2c(n1)NC(=O)c1c(c3ccccc3n1Cc1ccc(Cl)cc1)C2`, the TGI was 35.6 µM in the experiment on HCT-15 colon; 72 µM with MOLT-4 leukemia; over 100 µM in the experiment on NCI-H226 lung; over 100 µM in the experiment with NCI-H23 lung; 36.8 µM with NCI-H460 lung; over 100 µM in the experiment on OVCAR-5 ovarian. The TGI in the experiment on SF-268 CNS, in the experiment with SK-MEL-28 melanoma and in the experiment with UACC-62 melanoma was over 100 µM throughout.
`Nc1c2c(=O)[nH]c(=O)c2c(N)c2c(=O)c3ccccc3c(=O)c12`: the TGI was 3.19 µM with HCT-15 colon; over 26.4 µM in the experiment on MOLT-4 leukemia; 4.96 µM with NCI-H226 lung; 3.17 µM with NCI-H23 lung; 2.52 µM in the experiment on NCI-H460 lung; 3.42 µM in the experiment with OVCAR-5 ovarian. Besides, the TGI in the experiment on RPMI-8226 leukemia was determined as 8.53 µM; in the experiment on SF-268 CNS, 15.5 µM; in the experiment with SK-MEL-28 melanoma, 3.98 µM; in the experiment on UACC-62 melanoma, 3.25 µM.
`CC(=O)OC(C)C1C2=C(C(=O)CC1(C)O)C(=O)c1c(ccc(-c3ccc4c(c3O)C(=O)C3=C(C4=O)C(C(C)OC(C)=O)C(C)(O)CC3=O)c1O)C2=O` (configuration not stated): the TGI is 5.49 µM in the experiment with HCT-15 colon; over 100 µM with MOLT-4 leukemia; 27.8 µM with NCI-H226 lung; 3.07 µM with NCI-H23 lung; 21.7 µM in the experiment with NCI-H460 lung; 11.3 µM in the experiment on OVCAR-5 ovarian. The TGI with RPMI-8226 leukemia was over 100 µM; with SF-268 CNS, 19.4 µM; with SK-MEL-28 melanoma, 4.7 µM; in the experiment on UACC-62 melanoma, 3.1 µM.
Turning to `C=CC[N+]12CN3CN(CN(C3)C1)C2`, the TGI in the experiment on HCT-15 colon amounted to 50.9 µM; with MOLT-4 leukemia, 57.5 µM; with NCI-H23 lung it was 52.8 µM; with NCI-H460 lung it was 54.7 µM; in the experiment with OVCAR-5 ovarian, 95.5 µM; in the experiment with RPMI-8226 leukemia, 39 µM. Also, the TGI worked out at 72.3 µM in the experiment with SF-268 CNS, 55.5 µM in the experiment on SK-MEL-28 melanoma and 80.2 µM in the experiment on UACC-62 melanoma.
`COc1ccc(C[C@H](N)C(=O)NC2C(CO)OC(n3cnc4c(N(C)C)ncnc43)C2O)cc1` (some centres not stated): the TGI with HCT-15 colon came out at 11.9 µM; with MOLT-4 leukemia, 0.412 µM; in the experiment with NCI-H226 lung, 0.446 µM; in the experiment on NCI-H23 lung, 0.432 µM; in the experiment on NCI-H460 lung it was 1.15 µM; with OVCAR-5 ovarian, 42.3 µM. The TGI was 1.3 µM in the experiment on RPMI-8226 leukemia, 2.61 µM with SF-268 CNS, 0.481 µM in the experiment with SK-MEL-28 melanoma and 0.411 µM in the experiment with UACC-62 melanoma.
As to `COC(=O)Nc1nc2cc(OC)c(OC)cc2c(=O)[nH]1`, the TGI in the experiment with HCT-15 colon, in the experiment on MOLT-4 leukemia, in the experiment on NCI-H226 lung, in the experiment on NCI-H23 lung, in the experiment with NCI-H460 lung and in the experiment on OVCAR-5 ovarian was over 100 µM throughout. Besides, the TGI in the experiment with SF-268 CNS, with SK-MEL-28 melanoma and in the experiment on UACC-62 melanoma was over 100 µM throughout.
Regarding `NC(=O)C(N)=O`, the TGI in the experiment with HCT-15 colon, with MOLT-4 leukemia, with NCI-H23 lung, in the experiment on NCI-H460 lung, in the experiment on OVCAR-5 ovarian and in the experiment on RPMI-8226 leukemia was over 100 µM each time. Moreover, the TGI with SF-268 CNS, with SK-MEL-28 melanoma and in the experiment on UACC-62 melanoma was over 100 µM each time.

(Values after PubChem BioAssay (NCI).)
